From the NIST ThermoML archive (doi:10.1016/j.fluid.2006.05.029)
± gives the expanded uncertainty stated by the source.

Assays:
[1] = 298.15 K, 101.33 kPa, Liquid
[2] = refractive index (Na D-line) (dimensionless); settings: 298.15 K; 101.33 kPa; Liquid; Standard Abbe refractometry

Row | mass density [1] | refractive index [2] | mass density ([1]; Pycnometric method) | SMILES
1 | 1063.33 ± 1.3 kg/m3 | 1.3672 ± 0.0008 | – | COC(=O)OC [dimethyl carbonate]
2 | – | 1.3262 ± 0.0007 | 786.49 ± 0.71 kg/m3 | CO [methanol]
